ChEMBL document CHEMBL4385605, “Synthesis and Structure-Affinity Relationships of Spirocyclic Benzopyrans with Exocyclic Amino Moiety” (J Med Chem, 2019)
Active and inactive are the calls of the source. The calls are words filed in the database; no cut-off is given here.

Assays:
[1] = molecular target: Kappa-type opioid receptor (Cavia porcellus, UniProt P41144); experiment: Displacement of [3H]U69,593 from kappa opioid receptor in guinea pig brain membrane after 120 mins by scintillation counting analysis; assay type: cell membranes
Mu-type opioid receptor = Mu-type opioid receptor (Cavia porcellus, UniProt P97266); experiment: Displacement of [3H]DAMGO from mu opioid receptor in guinea pig brain membranes after 120 mins by scintillation counting analysis; assay type: cell membranes
[2] = molecular target: T1, Sigma intracellular receptor 2 (Rattus norvegicus, UniProt Q5U3Y7); experiment: Displacement of [3H]-di-o-tolylguanidine from sigma2 receptor in rat liver membranes incubated for 120 mins in the presence of sigma1 receptor ligand (+)-pentazocine by scintillation counting method; assay type: cell membranes
T1 sequence (Q5U3Y7 whole entry): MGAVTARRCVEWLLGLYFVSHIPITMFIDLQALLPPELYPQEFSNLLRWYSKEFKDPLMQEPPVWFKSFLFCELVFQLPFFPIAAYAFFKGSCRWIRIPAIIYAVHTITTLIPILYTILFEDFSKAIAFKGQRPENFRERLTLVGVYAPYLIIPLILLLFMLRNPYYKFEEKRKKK

[3] = molecular target: Sigma intracellular receptor 2 (Homo sapiens, UniProt Q5BJF2); experiment: Displacement of [3H]-di-o-tolylguanidine from sigma2 receptor in human RT4 cell membranes at 1 uM after 120 mins in the presence of sigma1 receptor ligand (+)-pentazocine by scintillation counting method relative to control
Sus scrofa = species: Sus scrofa; experiment: Displacement of [3H]-(+)-MK-801 from PCP binding site of NMDA receptor in pig brain cortex membranes up to 1 uM after 120 mins by scintillation counting analysis; assay type: cell membranes
[4] = molecular target: Delta-type opioid receptor (Rattus norvegicus, UniProt P33533); experiment: Displacement of [3H]DPDPE from delta opioid receptor in rat membranes after 120 mins by scintillation counting analysis; assay type: cell membranes
Cavia porcellus = species: Cavia porcellus; experiment: Selectivity ratio of Ki for displacement of [3H](+)-pentazocine from sigma 1 receptor in guinea pig brain cortex membranes to Ki for displacement of [3H]DAMGO from mu opioid receptor in guinea pig brain membranes; assay type: cell membranes
[5] = Selectivity ratio of Ki for displacement of [3H]DTG from sigma2 receptor in rat liver membranes to Ki for displacement of (+)-[3H]pentazocine from sigma 1 receptor in guinea pig brain cortex membranes; assay type: cell membranes
[6] = molecular target: Sigma non-opioid intracellular receptor 1 (Cavia porcellus, UniProt Q60492); experiment: Displacement of [3H](+)-pentazocine from sigma 1 receptor in guinea pig brain cortex membranes after 120 mins by scintillation counting analysis; assay type: cell membranes
[7] = molecular target: Sigma intracellular receptor 2 (Rattus norvegicus) (UniProt Q5U3Y7); experiment: Displacement of [3H]-di-o-tolylguanidine from sigma2 receptor in rat liver membranes at 1 uM incubated for 120 mins in the presence of sigma1 receptor ligand (+)-pentazocine by scintillation counting method relative to control; assay type: cell membranes
[8] = molecular target: Delta-type opioid receptor (Rattus norvegicus) (UniProt P33533); experiment: Displacement of [3H]DPDPE from delta opioid receptor in rat membrane at 1 uM after 120 mins by scintillation counting analysis relative to control; assay type: cell membranes
CYP2D6 = CYP2D6 (Homo sapiens, UniProt P10635); experiment: Inhibition of recombinant human CYP2D6 at 1 uM by fluorescence assay relative to control; assay type: ADME
[9] = molecular target: Sigma non-opioid intracellular receptor 1 (Homo sapiens, UniProt Q99720); experiment: Displacement of [3H](+)-pentazocine from sigma 1 receptor in human RPMI8226 cell membranes incubated for 2 hrs under shaking by scintillation counting analysis
[10] = molecular target: Mu-type opioid receptor (Cavia porcellus) (UniProt P97266); experiment: Displacement of [3H]DAMGO from mu opioid receptor in guinea pig brain membranes at 1 uM after 120 mins by scintillation counting analysis relative to control; assay type: cell membranes
[11] = molecular target: Sodium-dependent serotonin transporter (Homo sapiens) (UniProt P31645); experiment: Binding affinity to serotonin transporter (unknown origin) at 1 uM
[12] = molecular target: T2, 5-hydroxytryptamine receptor 1A (Homo sapiens) (UniProt P08908); experiment: Binding affinity to 5-HT1AR (unknown origin) at 1 uM relative to control
T2 sequence (whole entry): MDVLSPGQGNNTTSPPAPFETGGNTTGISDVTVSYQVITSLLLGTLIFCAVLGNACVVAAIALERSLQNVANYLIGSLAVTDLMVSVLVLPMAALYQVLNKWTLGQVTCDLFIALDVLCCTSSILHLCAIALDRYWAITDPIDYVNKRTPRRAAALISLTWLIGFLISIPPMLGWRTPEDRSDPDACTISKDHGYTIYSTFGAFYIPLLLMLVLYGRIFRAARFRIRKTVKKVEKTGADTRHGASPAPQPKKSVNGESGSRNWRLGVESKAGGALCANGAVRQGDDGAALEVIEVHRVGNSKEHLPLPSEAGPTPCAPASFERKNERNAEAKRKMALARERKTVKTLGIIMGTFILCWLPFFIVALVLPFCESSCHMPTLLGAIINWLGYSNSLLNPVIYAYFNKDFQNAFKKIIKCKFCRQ

[13] = Metabolic stability in human liver microsomes assessed as parent compound remaining at 1 uM in the presence of NADPH regenerating system after 60 mins by UPLC/MS analysis; assay type: ADME, Microsome; conditions: read-out: Stability
[14] = molecular target: Sodium-dependent noradrenaline transporter (Homo sapiens) (UniProt P23975); experiment: Binding affinity to noradrenaline transporter (unknown origin) at 1 uM
HepG2 [15] = experiment: Cytotoxicity against human HepG2 cells at 1 to 100 uM incubated for 20 hrs under serum free condition by neutral red uptake assay; assay type: cell-based; conditions: hepg2, 20 h
[16] = molecular target: T3, Alpha-2A adrenergic receptor (Homo sapiens) (UniProt P08913); experiment: Binding affinity to alpha 2a adrenergic receptor (unknown origin) at 1 uM relative to control
T3 sequence (whole entry): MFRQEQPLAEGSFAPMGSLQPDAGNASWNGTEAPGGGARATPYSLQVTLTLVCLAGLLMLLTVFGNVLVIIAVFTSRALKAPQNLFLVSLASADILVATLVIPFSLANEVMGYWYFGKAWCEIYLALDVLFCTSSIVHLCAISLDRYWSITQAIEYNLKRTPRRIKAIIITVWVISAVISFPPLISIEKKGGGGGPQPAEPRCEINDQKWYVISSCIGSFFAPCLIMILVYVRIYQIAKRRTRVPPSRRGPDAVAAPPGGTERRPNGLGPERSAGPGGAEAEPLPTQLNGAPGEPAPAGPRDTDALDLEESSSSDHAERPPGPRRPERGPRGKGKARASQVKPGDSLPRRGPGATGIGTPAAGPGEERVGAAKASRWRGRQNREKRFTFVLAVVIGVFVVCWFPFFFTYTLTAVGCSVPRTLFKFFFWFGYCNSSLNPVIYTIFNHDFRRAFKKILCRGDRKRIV

[17] = molecular target: 5-hydroxytryptamine receptor 2B (Homo sapiens) (UniProt P41595); experiment: Binding affinity to 5-HT2BR (unknown origin) at 1 uM relative to control
[18] = molecular target: Sodium-dependent dopamine transporter (Homo sapiens) (UniProt Q01959); experiment: Binding affinity to dopamine transporter (unknown origin) at 1 uM
[19] = molecular target: T4, Alpha-1A adrenergic receptor (Homo sapiens) (UniProt P35348); experiment: Binding affinity to alpha 1a adrenergic receptor (unknown origin) at 1 uM relative to control
T4 sequence (whole entry): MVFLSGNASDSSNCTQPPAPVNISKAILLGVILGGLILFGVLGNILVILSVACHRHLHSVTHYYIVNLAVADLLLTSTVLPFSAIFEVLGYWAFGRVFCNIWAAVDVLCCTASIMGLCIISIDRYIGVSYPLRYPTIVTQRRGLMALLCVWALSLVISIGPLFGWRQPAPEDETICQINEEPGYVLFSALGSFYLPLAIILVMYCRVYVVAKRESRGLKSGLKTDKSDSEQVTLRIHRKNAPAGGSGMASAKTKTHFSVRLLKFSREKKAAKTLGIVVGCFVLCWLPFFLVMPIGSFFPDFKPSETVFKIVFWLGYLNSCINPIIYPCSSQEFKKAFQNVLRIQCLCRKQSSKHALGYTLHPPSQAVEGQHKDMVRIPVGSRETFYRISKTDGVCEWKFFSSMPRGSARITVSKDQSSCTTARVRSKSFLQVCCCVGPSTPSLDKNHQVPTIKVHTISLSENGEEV

Cytochrome P450 2C19 = Cytochrome P450 2C19 (Homo sapiens, UniProt P33261); experiment: Inhibition of recombinant human CYP2C19 at 1 uM by fluorescence assay; assay type: ADME; conditions: recombinant enzyme
HepG2 [20] = experiment: Cytotoxicity against human HepG2 cells at 1 to 100 uM incubated for 20 hrs under serum free condition by MTT assay; assay type: cell-based; conditions: hepg2, 20 h
Cytochrome P450 3A4 = Cytochrome P450 3A4 (Homo sapiens, UniProt P08684); experiment: Inhibition of recombinant human CYP3A4 at 1 uM by fluorescence assay; assay type: ADME; conditions: recombinant enzyme
Cytochrome P450 2C9 = Cytochrome P450 2C9 (Homo sapiens, UniProt P11712); experiment: Inhibition of recombinant human CYP2C9 at 1 uM by fluorescence assay; assay type: ADME; conditions: recombinant enzyme
Cytochrome P450 1A2 = molecular target: T5, Cytochrome P450 1A2 (Homo sapiens, UniProt P05177); experiment: Inhibition of recombinant human CYP1A2 at 1 uM by fluorescence assay; assay type: ADME; conditions: recombinant enzyme
T5 sequence (P05177 whole entry): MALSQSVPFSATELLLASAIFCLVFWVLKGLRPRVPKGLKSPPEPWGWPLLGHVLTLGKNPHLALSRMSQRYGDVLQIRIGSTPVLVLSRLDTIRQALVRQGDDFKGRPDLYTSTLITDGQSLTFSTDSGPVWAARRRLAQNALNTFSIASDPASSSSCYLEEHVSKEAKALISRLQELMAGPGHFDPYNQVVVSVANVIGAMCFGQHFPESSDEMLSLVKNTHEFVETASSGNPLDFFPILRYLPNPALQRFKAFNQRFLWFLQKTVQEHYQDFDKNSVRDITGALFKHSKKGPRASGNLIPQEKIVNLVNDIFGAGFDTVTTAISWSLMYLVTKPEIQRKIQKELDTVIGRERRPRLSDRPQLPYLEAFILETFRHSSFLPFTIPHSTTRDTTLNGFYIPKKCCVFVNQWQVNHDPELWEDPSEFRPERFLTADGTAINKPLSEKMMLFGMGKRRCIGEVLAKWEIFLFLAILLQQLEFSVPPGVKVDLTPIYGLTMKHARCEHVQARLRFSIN

Mu-type opioid receptor, sequence (P97266 whole entry): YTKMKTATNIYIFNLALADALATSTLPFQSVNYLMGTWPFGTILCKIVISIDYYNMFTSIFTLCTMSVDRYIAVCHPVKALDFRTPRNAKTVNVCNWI
Sigma non-opioid intracellular receptor 1 (Cavia porcellus, UniProt Q60492), sequence (Q60492 whole entry): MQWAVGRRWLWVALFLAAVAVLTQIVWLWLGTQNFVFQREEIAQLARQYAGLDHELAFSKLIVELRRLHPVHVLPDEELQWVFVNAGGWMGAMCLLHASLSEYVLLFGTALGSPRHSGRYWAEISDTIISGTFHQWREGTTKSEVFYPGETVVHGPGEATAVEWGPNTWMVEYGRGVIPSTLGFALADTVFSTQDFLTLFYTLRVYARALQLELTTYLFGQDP
Delta-type opioid receptor, sequence (P33533 whole entry): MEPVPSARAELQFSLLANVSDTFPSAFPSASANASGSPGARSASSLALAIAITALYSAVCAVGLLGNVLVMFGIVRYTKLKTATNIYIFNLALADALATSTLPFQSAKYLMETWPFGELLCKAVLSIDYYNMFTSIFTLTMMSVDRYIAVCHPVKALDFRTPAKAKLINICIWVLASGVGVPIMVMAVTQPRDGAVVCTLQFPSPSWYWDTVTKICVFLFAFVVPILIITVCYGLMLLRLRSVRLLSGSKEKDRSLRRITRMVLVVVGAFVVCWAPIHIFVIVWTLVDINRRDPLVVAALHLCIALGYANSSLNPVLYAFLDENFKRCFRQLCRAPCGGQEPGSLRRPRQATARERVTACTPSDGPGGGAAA
Kappa-type opioid receptor, sequence (P41144 whole entry): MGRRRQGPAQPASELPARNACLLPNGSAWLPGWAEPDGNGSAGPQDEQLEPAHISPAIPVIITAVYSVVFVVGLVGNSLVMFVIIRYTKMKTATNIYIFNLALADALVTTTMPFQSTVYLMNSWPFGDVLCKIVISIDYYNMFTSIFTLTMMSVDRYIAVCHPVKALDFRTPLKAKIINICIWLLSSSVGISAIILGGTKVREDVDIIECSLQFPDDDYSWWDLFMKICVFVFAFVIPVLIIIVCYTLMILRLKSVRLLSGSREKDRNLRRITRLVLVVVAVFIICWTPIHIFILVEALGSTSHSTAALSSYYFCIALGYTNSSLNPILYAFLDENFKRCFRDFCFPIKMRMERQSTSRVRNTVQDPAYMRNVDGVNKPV
Cytochrome P450 3A4, sequence (P08684 whole entry): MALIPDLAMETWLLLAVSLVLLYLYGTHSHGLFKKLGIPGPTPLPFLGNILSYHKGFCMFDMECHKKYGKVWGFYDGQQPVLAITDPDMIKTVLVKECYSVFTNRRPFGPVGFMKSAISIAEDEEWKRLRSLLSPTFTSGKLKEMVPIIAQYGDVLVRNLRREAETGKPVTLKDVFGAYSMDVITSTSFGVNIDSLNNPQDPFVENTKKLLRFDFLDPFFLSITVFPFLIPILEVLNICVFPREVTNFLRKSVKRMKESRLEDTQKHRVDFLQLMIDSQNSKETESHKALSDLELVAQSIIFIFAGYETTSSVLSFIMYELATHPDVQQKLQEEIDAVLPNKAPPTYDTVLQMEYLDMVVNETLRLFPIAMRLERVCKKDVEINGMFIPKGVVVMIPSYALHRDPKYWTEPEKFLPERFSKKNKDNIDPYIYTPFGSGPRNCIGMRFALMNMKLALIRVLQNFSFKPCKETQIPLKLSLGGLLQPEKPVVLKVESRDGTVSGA
CYP2D6, sequence (P10635 whole entry): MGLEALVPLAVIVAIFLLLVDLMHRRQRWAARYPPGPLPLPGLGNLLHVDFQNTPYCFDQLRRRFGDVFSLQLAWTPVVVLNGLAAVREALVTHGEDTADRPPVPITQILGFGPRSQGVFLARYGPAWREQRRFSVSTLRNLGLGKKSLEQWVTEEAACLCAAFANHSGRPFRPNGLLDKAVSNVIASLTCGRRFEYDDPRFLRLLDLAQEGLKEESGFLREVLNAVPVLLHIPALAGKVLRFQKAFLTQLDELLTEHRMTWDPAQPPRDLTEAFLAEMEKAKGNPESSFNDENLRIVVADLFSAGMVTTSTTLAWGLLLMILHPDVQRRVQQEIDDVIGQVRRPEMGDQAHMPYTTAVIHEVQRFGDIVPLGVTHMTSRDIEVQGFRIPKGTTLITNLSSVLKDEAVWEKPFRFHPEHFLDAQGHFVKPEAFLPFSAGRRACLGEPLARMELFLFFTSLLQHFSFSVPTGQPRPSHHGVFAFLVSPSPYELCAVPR
Cytochrome P450 2C19, sequence (P33261 whole entry): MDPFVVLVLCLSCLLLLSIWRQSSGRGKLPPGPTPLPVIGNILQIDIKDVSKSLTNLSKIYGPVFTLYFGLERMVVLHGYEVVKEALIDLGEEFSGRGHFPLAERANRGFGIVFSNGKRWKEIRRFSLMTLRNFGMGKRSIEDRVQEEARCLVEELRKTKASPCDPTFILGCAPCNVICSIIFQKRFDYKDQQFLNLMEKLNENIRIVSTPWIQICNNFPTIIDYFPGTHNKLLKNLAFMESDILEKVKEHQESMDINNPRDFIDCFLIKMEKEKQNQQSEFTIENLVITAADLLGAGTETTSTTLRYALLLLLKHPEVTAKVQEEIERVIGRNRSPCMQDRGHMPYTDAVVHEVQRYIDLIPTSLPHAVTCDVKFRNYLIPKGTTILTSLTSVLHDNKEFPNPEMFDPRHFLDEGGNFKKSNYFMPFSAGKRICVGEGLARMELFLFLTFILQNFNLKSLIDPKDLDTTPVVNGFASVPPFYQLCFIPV
Sigma non-opioid intracellular receptor 1 (Homo sapiens, UniProt Q99720), sequence (Q99720 whole entry): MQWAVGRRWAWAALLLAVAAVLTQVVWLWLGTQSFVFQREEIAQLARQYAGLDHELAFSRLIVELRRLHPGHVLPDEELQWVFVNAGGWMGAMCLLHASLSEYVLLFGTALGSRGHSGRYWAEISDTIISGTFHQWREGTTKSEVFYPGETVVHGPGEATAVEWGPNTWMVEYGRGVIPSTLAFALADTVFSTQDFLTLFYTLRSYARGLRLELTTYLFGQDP
Sodium-dependent dopamine transporter (Homo sapiens), sequence (Q01959 whole entry): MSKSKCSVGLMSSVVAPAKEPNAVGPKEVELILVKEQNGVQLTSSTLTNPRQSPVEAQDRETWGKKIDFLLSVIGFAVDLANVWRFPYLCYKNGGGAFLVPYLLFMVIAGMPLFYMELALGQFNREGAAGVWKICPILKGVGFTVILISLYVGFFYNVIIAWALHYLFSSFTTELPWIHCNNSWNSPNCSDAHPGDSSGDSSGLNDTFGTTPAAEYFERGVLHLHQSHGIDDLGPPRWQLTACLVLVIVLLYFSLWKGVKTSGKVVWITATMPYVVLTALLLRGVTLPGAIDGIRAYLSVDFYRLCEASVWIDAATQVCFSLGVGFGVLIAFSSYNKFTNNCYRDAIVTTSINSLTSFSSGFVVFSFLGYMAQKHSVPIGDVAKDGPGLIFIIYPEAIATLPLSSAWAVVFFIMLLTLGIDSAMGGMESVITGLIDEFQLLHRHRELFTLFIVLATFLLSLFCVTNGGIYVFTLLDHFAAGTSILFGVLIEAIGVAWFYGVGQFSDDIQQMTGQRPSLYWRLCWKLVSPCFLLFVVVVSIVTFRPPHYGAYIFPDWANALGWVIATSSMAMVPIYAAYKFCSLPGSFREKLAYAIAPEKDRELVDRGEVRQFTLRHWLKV
Sodium-dependent serotonin transporter (Homo sapiens), sequence (P31645 whole entry, looked up): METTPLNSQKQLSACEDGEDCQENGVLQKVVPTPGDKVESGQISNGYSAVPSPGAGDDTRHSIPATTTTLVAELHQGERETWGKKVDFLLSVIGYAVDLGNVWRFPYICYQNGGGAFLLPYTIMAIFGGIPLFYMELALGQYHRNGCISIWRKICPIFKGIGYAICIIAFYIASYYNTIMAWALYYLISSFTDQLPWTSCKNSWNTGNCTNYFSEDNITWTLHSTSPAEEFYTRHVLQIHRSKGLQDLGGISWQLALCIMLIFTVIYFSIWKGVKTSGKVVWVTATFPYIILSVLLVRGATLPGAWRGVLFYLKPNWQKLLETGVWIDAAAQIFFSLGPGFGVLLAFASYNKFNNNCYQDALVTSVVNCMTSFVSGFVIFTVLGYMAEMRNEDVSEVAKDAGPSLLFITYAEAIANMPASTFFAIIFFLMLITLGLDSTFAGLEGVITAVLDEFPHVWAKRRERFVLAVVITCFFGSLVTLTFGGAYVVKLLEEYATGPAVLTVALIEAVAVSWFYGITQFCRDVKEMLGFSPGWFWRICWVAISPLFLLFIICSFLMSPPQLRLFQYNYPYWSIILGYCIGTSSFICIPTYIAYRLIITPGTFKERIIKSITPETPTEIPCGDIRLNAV
Cytochrome P450 2C9, sequence (P11712 whole entry): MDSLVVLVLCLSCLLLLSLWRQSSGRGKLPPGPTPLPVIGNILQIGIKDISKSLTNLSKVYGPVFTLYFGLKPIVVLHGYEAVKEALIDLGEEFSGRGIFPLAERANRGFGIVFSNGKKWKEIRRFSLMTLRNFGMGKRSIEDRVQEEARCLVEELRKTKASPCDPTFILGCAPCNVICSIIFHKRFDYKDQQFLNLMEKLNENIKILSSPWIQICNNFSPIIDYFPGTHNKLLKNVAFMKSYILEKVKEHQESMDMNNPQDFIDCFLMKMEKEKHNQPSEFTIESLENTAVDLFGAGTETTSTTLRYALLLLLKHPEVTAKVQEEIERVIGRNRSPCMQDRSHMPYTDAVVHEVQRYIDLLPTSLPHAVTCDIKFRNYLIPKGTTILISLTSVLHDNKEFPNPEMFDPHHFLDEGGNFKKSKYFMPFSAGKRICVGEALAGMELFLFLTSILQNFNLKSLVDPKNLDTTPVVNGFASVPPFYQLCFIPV
Mu-type opioid receptor (Cavia porcellus), sequence (P97266 whole entry): as the sequence (P97266 whole entry) above
Sigma intracellular receptor 2 (Homo sapiens, UniProt Q5BJF2), sequence (Q5BJF2 whole entry): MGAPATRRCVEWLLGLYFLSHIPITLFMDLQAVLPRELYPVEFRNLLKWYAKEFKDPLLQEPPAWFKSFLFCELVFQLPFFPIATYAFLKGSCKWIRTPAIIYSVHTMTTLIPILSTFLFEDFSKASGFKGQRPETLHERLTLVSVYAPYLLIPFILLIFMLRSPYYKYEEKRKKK
Delta-type opioid receptor (Rattus norvegicus), sequence (P33533 whole entry): as the sequence (P33533 whole entry) above

| Structure (SMILES) | Ki [1] | Ki (Mu-type opioid receptor) | Ki [2] | Activity (Sus scrofa) | Ki [4] | Ratio Ki (Cavia porcellus) | Ratio Ki [5] | Ki [6] | inhibition [7] | inhibition at 1 µM (CYP2D6) | Ki [9] | Activity [11] | Activity [12] | remaining at 1 h, 1 µM [13] | Activity [14] | Activity (HepG2 [15]) | Activity [16] | Activity [17] | Activity [18] | Activity [19] | also measured |
| --- | --- | --- | --- | --- | --- | --- | --- | --- | --- | --- | --- | --- | --- | --- | --- | --- | --- | --- | --- | --- | --- |
| COC1Cc2ccccc2[C@]2(CC[C@@H](NCc3ccccc3)CC2)O1 (stereo partly specified) | 204 nM | 38 nM | 2000 nM | inactive | 49 nM | 14 | 5 to 10 |  |  |  |  |  |  |  |  |  |  |  |  |  | inhibition [3]: 40% |
| c1ccc(CN[C@H]2CC[C@@]3(CC2)OCCc2ccccc23)cc1 | 85 nM | 31 nM |  |  | 14 nM | 8.5 | 5 to 10 | 256 nM | 13% |  |  |  |  |  |  |  |  |  |  |  |  |
| COC1O[C@]2(CC[C@H](NCc3ccccc3)CC2)c2ccccc21 (stereo partly specified) | 413 nM | 115 nM |  |  |  |  | 5 to 10 | 262 nM | 25% |  |  |  |  |  |  |  |  |  |  |  | inhibition [8]: 30% |
| COC1Cc2ccccc2[C@]2(CC[C@H](N(C)Cc3ccccc3)CC2)O1 (stereo partly specified) | 2300 nM |  | 329 nM | inactive | 1300 nM |  | 5 to 10 |  |  | > 90% | 39 nM | inactive | inactive | > 50% | inactive | Non-Toxic | inactive | inactive | inactive | inactive | inhibition [10]: 12%; inhibition (INH) (Cytochrome P450 2C19): Not Active; Activity (HepG2 [20]): Non-Toxic; inhibition (INH) (Cytochrome P450 3A4): Not Active; inhibition (INH) (Cytochrome P450 2C9): Not Active; inhibition (INH) (Cytochrome P450 1A2): Not Active |
| COC1Cc2ccccc2[C@]2(CC[C@@H](N(C)CC3CCCCC3)CC2)O1 (stereo partly specified) | 980 nM | 299 nM | 154 nM | inactive | 150 nM |  | 50 | 3.1 nM |  | > 90% | 6.9 nM | inactive | inactive | > 50% | inactive | Non-Toxic | inactive | inactive | inactive | inactive | inhibition (INH) (Cytochrome P450 2C19): Not Active; Activity (HepG2 [20]): Non-Toxic; inhibition (INH) (Cytochrome P450 3A4): Not Active; inhibition (INH) (Cytochrome P450 2C9): Not Active; inhibition (INH) (Cytochrome P450 1A2): Not Active |
